Test [1] deals with T1, human CLR/RAMP2 (Homo sapiens, UniProt O60895+Q16602).
T1 construct: host or cells: CHO-K1 cells (PathHunter β-Arrestin cell line)
Briefly: CLR/RAMP2 receptor-activation assay (PathHunter β-Arrestin). The format is cell-based. The note with it: for Emax: read-out: CLR/RAMP2 Max Activity. The method, then:
(§1) The bioactivity of peptide analogs was studied using CLR/RAMP1, CLR/RAMP2, and CLR/RAMP3 assays by DiscoveRx (Fremont, CA, USA) in cells that stably express human CLR/RAMP1 (1321N1 cells), CLR/RAMP2 (CHO-K1 cells), or CLR/RAMP3 (CHO-K1 cells). The dose-dependent stimulatory effect of agonists was studied in duplicate, at 10 different concentrations. Determination of the half-maximal effective concentration (EC50) was performed using a 10-point dose-response curves. The starting concentration was 1.0 μM, and it was serially diluted 3-fold, in DMSO.
In this assay, the CLR was fused in frame with a small enzyme donor fragment ProLink™ (PK). The receptor was co-expressed with a fusion protein of β-arrestin and an N-terminal deletion mutant of β-galactosidase (i.e., enzyme acceptor). Activation of the CLR/RAMP2 receptor stimulated the binding of β-arrestin to the PK-tagged receptor and led to an increase in enzyme activities which can then be measured with the PathHunter detection reagents. PathHunter cell lines were seeded in a total volume of 20 μL into 384-well microplates and incubated at 37 °C prior to the assay. Intermediate dilution of samples was performed to generate 5X samples in the assay buffer. A 5 μL aliquot of 5X sample was added to cells and incubated at 37 °C for 90 min. Vehicle concentration was 1%.

Test [2] has as its target T2, human CLR/RAMP1 (Homo sapiens, UniProt O60894+Q16602).
T2 construct: host or cells: 1321N1 cells (cAMP Hunter cell line)
Briefly: CLR/RAMP1 receptor-activation assay (DiscoverX cAMP Hunter, HitHunter cAMP XS+). The settings on record: for Emax: read-out: CLR/RAMP1 Max Activity. The format is cell-based. The method, then:
as §1
Cells were seeded in a total volume of 20 μL into 384-well microplates, and the activity was determined using the DiscoverX HitHunter cAMP XS + assay. Before the assay, media was aspirated from cells and replaced with 15 μL 2:1 HBSS/10 mM Hepes: cAMP XS + Ab reagent. Intermediate dilution of samples was performed to generate 4X sample in assay buffer, and 5 μL of the 4X sample was added to cells and incubated at 37°C. Vehicle concentration was 1%.
The chemiluminescent signal was read with a PerkinElmer instrument.

The mark [3] stands for this setting: percentage of positive control β-CGRP.

Our source for the EC50 and Emax values is PMC9655119, “Sustained Activation of CLR/RAMP Receptors by Gel-Forming Agonists” (International Journal of Molecular Sciences, 2022).

Read-outs that look alike come from different tables or passages of the source.

T1 sequence (Q16602 23-461): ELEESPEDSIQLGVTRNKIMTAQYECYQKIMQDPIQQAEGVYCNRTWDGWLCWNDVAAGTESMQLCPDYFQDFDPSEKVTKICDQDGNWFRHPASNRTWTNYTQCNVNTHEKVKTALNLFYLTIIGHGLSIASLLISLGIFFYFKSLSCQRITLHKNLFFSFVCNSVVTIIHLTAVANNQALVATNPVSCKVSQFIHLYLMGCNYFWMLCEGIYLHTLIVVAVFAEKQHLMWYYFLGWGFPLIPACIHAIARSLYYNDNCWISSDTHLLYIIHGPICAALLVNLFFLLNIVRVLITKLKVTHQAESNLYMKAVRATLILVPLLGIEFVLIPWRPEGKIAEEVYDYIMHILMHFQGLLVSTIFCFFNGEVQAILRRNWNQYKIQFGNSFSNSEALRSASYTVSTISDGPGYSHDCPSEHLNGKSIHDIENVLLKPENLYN
T1 sequence (O60895 43-175): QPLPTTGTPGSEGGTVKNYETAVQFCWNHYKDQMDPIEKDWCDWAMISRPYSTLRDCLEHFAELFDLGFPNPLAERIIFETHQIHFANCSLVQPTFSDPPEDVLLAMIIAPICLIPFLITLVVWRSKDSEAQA
T2 sequence (Q16602 23-461): as the sequence (Q16602 23-461) above
T2 sequence (O60894 27-148): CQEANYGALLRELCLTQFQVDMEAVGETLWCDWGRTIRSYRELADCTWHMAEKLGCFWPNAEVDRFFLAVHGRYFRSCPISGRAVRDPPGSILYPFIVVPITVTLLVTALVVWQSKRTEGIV

Turning to `CCCCCCCCCCCCCCCC(=O)NCCCC[C@H](NC(=O)[C@@H](N)[C@@H](C)O)C(=O)N[C@@H](CCCCN)C(=O)N[C@H](C(=O)N[C@@H](CC(C)C)C(=O)N[C@@H](CCCNC(=N)N)C(=O)N[C@H](C(=O)NCC(=O)N[C@H]1CSSC[C@@H](C(=O)N[C@H](C(=O)N[C@H](C(=O)N[C@@H](CCC(N)=O)C(=O)N[C@@H](CCCCN)C(=O)N[C@@H](CC(C)C)C(=O)N[C@@H](C)C(=O)N[C@@H](Cc2c[nH]cn2)C(=O)N[C@@H](CCC(N)=O)C(=O)N[C@H](C(=O)N[C@@H](Cc2ccc(O)cc2)C(=O)N[C@@H](CCC(N)=O)C(=O)N[C@@H](Cc2ccccc2)C(=O)N[C@H](C(=O)N[C@@H](CC(=O)O)C(=O)N[C@@H](CCCCN)C(=O)N[C@@H](CC(=O)O)C(=O)N[C@@H](CCCCN)C(=O)N[C@@H](CC(=O)O)C(=O)N[C@@H](CC(N)=O)C(=O)N[C@@H](CO)C(=O)N[C@@H](C)C(=O)N2CCC[C@H]2C(=O)N[C@H](C(=O)N[C@@H](CC(=O)O)C(=O)N2CCC[C@H]2C(=O)N[C@@H](CO)C(=O)N[C@@H](CO)C(=O)N2CCC[C@H]2C(=O)N[C@@H](Cc2c[nH]cn2)C(=O)N[C@@H](CO)C(=O)N[C@@H](Cc2ccc(O)cc2)C(N)=O)C(C)C)[C@@H](C)O)[C@@H](C)CC)C(C)C)[C@@H](C)O)NC(=O)[C@H]([C@@H](C)O)NC(=O)CNC(=O)[C@H](Cc2ccccc2)NC(=O)[C@H](CCCNC(=N)N)NC1=O)[C@@H](C)O)[C@@H](C)O` [Analog C-4], the EC50 in test [1] (CHO-K1 cells stably expressing human CLR/RAMP2, β-arrestin recruitment, 90 min at 37 °C, 10-point dose-response in duplicate, start 1.0 μM, 3-fold dilution in DMSO) amounted to 0.5 nM; in test [2] (1321N1 cells stably expressing human CLR/RAMP1, cAMP read-out, 10-point dose-response in duplicate, start 1.0 μM, 3-fold serial dilution in DMSO), 0.2 nM. For the same molecule, the results for the Emax in test [1] (percentage of positive control ADM1-52) and in test [2] (setting [3]) were 86% and 82%, respectively.
For the molecule `CSCC[C@H](NC(=O)CNC(=O)CNC(=O)[C@H](CO)NC(=O)[C@H](CCCNC(=N)N)NC(=O)[C@H](CO)NC(=O)[C@H](CC(C)C)NC(=O)[C@H](CC(C)C)NC(=O)CNC(=O)[C@H](C)NC(=O)[C@H](CC(C)C)NC(=O)[C@H](CCCNC(=N)N)NC(=O)[C@H](Cc1c[nH]cn1)NC(=O)[C@@H](NC(=O)[C@@H](NC(=O)[C@@H]1CSSC[C@H](NC(=O)[C@H](C)N)C(=O)N[C@@H](CC(N)=O)C(=O)N[C@@H]([C@@H](C)O)C(=O)N[C@@H](C)C(=O)N[C@@H]([C@@H](C)O)C(=O)N1)C(C)C)[C@@H](C)O)C(=O)N[C@H](C(=O)N[C@@H](CCCCN)C(=O)N[C@@H](CO)C(=O)N[C@@H](CC(N)=O)C(=O)N[C@@H](Cc1ccccc1)C(=O)N[C@H](C(=O)N1CCC[C@H]1C(=O)N[C@H](C(=O)N[C@@H](CC(N)=O)C(=O)N[C@H](C(=O)NCC(=O)N[C@@H](CO)C(=O)N[C@@H](CCCCN)C(=O)N[C@@H](C)C(=O)N[C@@H](Cc1ccccc1)C(N)=O)C(C)C)[C@@H](C)O)C(C)C)C(C)C` [CGRP, calcitonin gene-related peptide, reference compound], the Emax in test [2] (setting [3]) is 103%.
Turning to `CCCCCCCCCCCCCCCC(=O)NCCCC[C@H](NC(=O)COCCOCCN)C(=O)NCC(=O)N[C@H]1CSSC[C@@H](C(=O)N[C@H](C(=O)N[C@H](C(=O)N[C@@H](CCC(N)=O)C(=O)N[C@@H](CCCCN)C(=O)N[C@@H](CC(C)C)C(=O)N[C@@H](C)C(=O)N[C@@H](Cc2c[nH]cn2)C(=O)N[C@@H](CCC(N)=O)C(=O)N[C@H](C(=O)N[C@@H](Cc2ccc(O)cc2)C(=O)N[C@@H](CCC(N)=O)C(=O)N[C@@H](Cc2ccccc2)C(=O)N[C@H](C(=O)N[C@@H](CC(=O)O)C(=O)N[C@@H](CCCCN)C(=O)N[C@@H](CC(=O)O)C(=O)N[C@H](C(=O)N[C@@H](C)C(=O)N2CCC[C@H]2C(=O)N[C@@H](CCCNC(=N)N)C(=O)N[C@@H](CO)C(=O)N[C@@H](CCCCN)C(=O)N[C@H](C(=O)N[C@@H](CO)C(=O)N2CCC[C@H]2C(=O)N[C@@H](CCC(N)=O)C(=O)NCC(=O)N[C@@H](Cc2ccc(O)cc2)C(N)=O)[C@@H](C)CC)C(C)C)[C@@H](C)O)[C@@H](C)CC)C(C)C)[C@@H](C)O)NC(=O)[C@H]([C@@H](C)O)NC(=O)CNC(=O)[C@H](Cc2ccccc2)NC(=O)[C@H](CCCNC(=N)N)NC1=O` [Analog D-6], the Emax in test [1] came out at 74%; in test [2], 56%.
The matching figures for `CCCCCCCCCCCCCCCC(=O)NCCCC[C@H](NC(=O)COCCOCCN)C(=O)NCC(=O)N[C@H]1CSSC[C@@H](C(=O)N[C@H](C(=O)N[C@H](C(=O)N[C@@H](CCC(N)=O)C(=O)N[C@@H](CCCCN)C(=O)N[C@@H](CC(C)C)C(=O)N[C@@H](C)C(=O)N[C@@H](Cc2c[nH]cn2)C(=O)N[C@@H](CCC(N)=O)C(=O)N[C@H](C(=O)N[C@@H](Cc2ccc(O)cc2)C(=O)N[C@@H](CCC(N)=O)C(=O)N[C@@H](Cc2ccccc2)C(=O)N[C@H](C(=O)N[C@@H](CC(=O)O)C(=O)N[C@@H](CCCCN)C(=O)N[C@@H](CC(=O)O)C(=O)N[C@@H](CCCCN)C(=O)N[C@@H](CC(=O)O)C(=O)N[C@@H](CC(N)=O)C(=O)N[C@@H](CO)C(=O)N[C@@H](C)C(=O)N2CCC[C@H]2C(=O)N[C@H](C(=O)N[C@@H](CC(=O)O)C(=O)N2CCC[C@H]2C(=O)N[C@@H](CO)C(=O)N[C@@H](CO)C(=O)N2CCC[C@H]2C(=O)N[C@@H](Cc2c[nH]cn2)C(=O)N[C@@H](CO)C(=O)N[C@@H](Cc2ccc(O)cc2)C(N)=O)C(C)C)[C@@H](C)O)[C@@H](C)CC)C(C)C)[C@@H](C)O)NC(=O)[C@H]([C@@H](C)O)NC(=O)CNC(=O)[C@H](Cc2ccccc2)NC(=O)[C@H](CCCNC(=N)N)NC1=O` [Analog B-1]: 143% and 54%.
As to `CCCCCCCCCCCCCCCC(=O)NCCCC[C@H](NC(=O)COCCOCCN)C(=O)NCC(=O)N[C@H]1CSSC[C@@H](C(=O)N[C@H](C(=O)N[C@H](C(=O)N[C@@H](CCC(N)=O)C(=O)N[C@@H](CCCCN)C(=O)N[C@@H](CC(C)C)C(=O)N[C@@H](C)C(=O)N[C@@H](Cc2c[nH]cn2)C(=O)N[C@@H](CCC(N)=O)C(=O)N[C@H](C(=O)N[C@@H](Cc2ccc(O)cc2)C(=O)N[C@@H](CCC(N)=O)C(=O)N[C@@H](Cc2ccccc2)C(=O)N[C@H](C(=O)N[C@@H](CC(=O)O)C(=O)N[C@@H](CCCCN)C(=O)N[C@@H](CC(=O)O)C(=O)N[C@@H](CCCCN)C(=O)N[C@@H](CC(=O)O)C(=O)N[C@@H](CC(N)=O)C(=O)N[C@H](C(=O)N[C@@H](CC(=O)O)C(=O)N2CCC[C@H]2C(=O)N[C@@H](CO)C(=O)N[C@@H](CO)C(=O)N2CCC[C@H]2C(=O)N[C@@H](Cc2c[nH]cn2)C(=O)N[C@@H](CO)C(=O)N[C@@H](Cc2ccc(O)cc2)C(N)=O)C(C)C)[C@@H](C)O)[C@@H](C)CC)C(C)C)[C@@H](C)O)NC(=O)[C@H]([C@@H](C)O)NC(=O)CNC(=O)[C@H](Cc2ccccc2)NC(=O)[C@H](CCCNC(=N)N)NC1=O` [Analog D-4], the Emax in test [1] was 82%; in test [2], 67%.
As to `CCCCCCCCCCCCCCCC(=O)NCCCC[C@H](NC(=O)COCCOCCN)C(=O)NCC(=O)N[C@H]1CSSC[C@@H](C(=O)N[C@H](C(=O)N[C@H](C(=O)N[C@@H](CCC(N)=O)C(=O)N[C@@H](CCCCN)C(=O)N[C@@H](CC(C)C)C(=O)N[C@@H](C)C(=O)N[C@@H](Cc2c[nH]cn2)C(=O)N[C@@H](CCC(N)=O)C(=O)N[C@H](C(=O)N[C@@H](Cc2ccc(O)cc2)C(=O)N[C@@H](CCC(N)=O)C(=O)N[C@@H](Cc2ccccc2)C(=O)N[C@H](C(=O)N[C@@H](CC(=O)O)C(=O)N[C@@H](CCCCN)C(=O)N[C@@H](CC(=O)O)C(=O)N[C@@H](CCCCN)C(=O)N[C@@H](CC(=O)O)C(=O)N[C@@H](CC(N)=O)C(=O)N[C@H](C(=O)N[C@@H](C)C(=O)N2CCC[C@H]2C(=O)N[C@@H](CCCNC(=N)N)C(=O)N[C@@H](CO)C(=O)N[C@@H](CCCCN)C(=O)N[C@H](C(=O)N[C@@H](CO)C(=O)N2CCC[C@H]2C(=O)N[C@@H](CCC(N)=O)C(=O)NCC(=O)N[C@@H](Cc2ccc(O)cc2)C(N)=O)[C@@H](C)CC)C(C)C)[C@@H](C)O)[C@@H](C)CC)C(C)C)[C@@H](C)O)NC(=O)[C@H]([C@@H](C)O)NC(=O)CNC(=O)[C@H](Cc2ccccc2)NC(=O)[C@H](CCCNC(=N)N)NC1=O` [Analog C-7], the Emax worked out at 147% in test [1] and 70% in test [2].
